These results are taken from patent publication US20240023534A1, “Devices, Compositions and Methods for Insect Control” (Agriculture Victoria Services PTY LTD, priority 2020, published 2024).

The subject of series [1] is C. davidsoni. Briefly: GC-EAD of beetle antennae to Pichia kluyveri headspace volatiles. As to conditions: female and male adults, P. kluyveri headspace volatiles. The text has this:
FIG. 6. GC-EAD responses of female (♀) and male (♂) C. davidsoni adults to headspace volatiles (black, FID chromatogram) of the fruit yeast Pichia kluyveri. […] IS=Internal standard, IS1=n-octane, IS2=Nonyl acetate.

Series [2] can be described thus: Release of compounds from the commercial co-attractant solution. It is filed as physicochemical. As to conditions: for Release rate (commercial solution): compound in commercial co-attractant solution; for duration of release in the current solution: current co-attractant solution.
A short description of series [3]: Gravimetric release rate and longevity of lure constituents in LDPE sachets. As to conditions: for Est. long. / Release rate: compound on wick in LDPE sachet, thickness, size, load per Table 1. It is filed as physicochemical. The procedure:
The release rates of co-attractant components formulated in low density polyethylene (LDPE) sachets were investigated (FIG. 1).
The release rate and theoretical longevity of the lure constituents in sachets were tested in gravimetric experiments. Data were used to determine the optimal sachet thickness, size (surface area) and estimated longevity of individual components (FIG. 2).
A fixed volume (1 ml) of each lure constituent was individually loaded in 50 cm 2 of different thicknesses (50, 100, 150 and 200 μm). Sachets were weighed daily for the first 5 days and later at greater time intervals. Release rates of the compounds through different sachet thicknesses were inferred using sachet weight loss over time (FIG. 2). Only the linear part of the weight loss curve was considered in the calculations of release rates. The maximum estimated longevity was deduced from the calculated release rate and corrected based on adjusted sachet size and volume of chemical loaded.

Series [4] can be described thus: Sachet size, thickness, release rate and lure longevity studies (Table 3, based on GC-MS analysis). It is filed as physicochemical. As to conditions: for Est. long. / Release rate: LDPE sachet per Table 3, based on GC-MS analysis. On the procedure:
Studies determining optimal sachet size and thickness, lure concentration, release rates and lure longevity were performed as described in Table 3.

For the next series, the system named is Carpophilus truncatus. Description: Cage dual-choice bioassay, co-attractant with one ingredient suppressed. It is filed as in vivo. As to conditions: for attractiveness of commercial co-attractant in the absence of the compound / role of the compound: test solution lacking one ingredient vs CL in 45% ethanol, fifty beetles. On the procedure:
FIG. 9. Boxplots representing the results of lab-conducted cage dual-choice assays on Carpophilus truncatus responses to odours. Between 50 and 100 beetles were simultaneously exposed to a solution of co-attractant […] one ingredient at a time was suppressed (treatments). The attraction index was calculated as follows: (number of beetles in test solution−number of beetles in control)/(total number of beetles). […] Line in the boxplots correspond to the median, top and bottom of the boxplots represent the 75th and 25th percentiles respectively while error bars depict the 5th and 95th percentiles. White dots are outliers. n correspond to the replication of each experiments. p values result from paired t-tests and stars indicate the level of statistical significance.
Fifty beetles were simultaneously exposed to a solution of co-attractant (control) and a solution of co-attractant from which one additive at a time was suppressed (treatments, see table 4). The attraction index was calculated as follows: (number of beetles in test solution—number of beetles in control)/(total number of beetles).

For series [5], the system named is C. davidsoni. Description: Field trial of synthetic blends in peach orchard (Example 6). It is filed as in vivo. The settings on record: CL+2PA, CL+IA, CL+IA+2PA vs CL; five weeks, N=6.
Text: C. davidsoni catches using prototype co-attractant solutions in a stone fruit orchard (Shepparton, VIC). CL corresponds to the control (original Carpophilus Lure co-attractant), CL+IA (co-attractant+Isopentyl Acetate), CL+PA (co-attractant+2-Phenethyl acetate) and CL+IA+PA (co-attractant+Isopentyl Acetate+2-Phenethyl acetate). […] Number of replicates per treatment N=6.
Synthetic blends consisting of the combination of the existing carpophilus lure with two new potential yeast attractants; namely Isopentyl acetate and 2-phenylethyl acetate; were formulated based on their respective ratio to ethyl acetate (Table 2) and tested in the field.
Field trials were conducted in a peach orchard in Invergordon (Victoria). Treatments included the original carpophilus lure (CL: control), the original lure combined with Isopentyl acetate (CL+IA) or with 2-phenylethylacetate (CL+2PA) or both (CL+IA+2PA). Six replicates of each odour blend were placed in black funnel traps held on pickets at 1.5 m height, arranged in randomized transects. Beetles were collected and synthetic blends replaced weekly over a 5-week period.
These compounds were tested either separately or together in the existing Carpophilus co-attractant and compared with the original co-attractant in the field. The trial was conducted over a five week period during which the beetles were collected and the lure solutions renewed weekly.
In the next series the test system is C. truncatus. Description: GC-EAD responses to W. rabaulensis odour. As to conditions: W. rabaulensis headspace odour. On the procedure:
FIG. 10. […] 1-Acetaldehyde. 2-Ethanol. 3-Isobutanol. 4-Isopentyl alcohol. 5-2-Methyl butanol. 6-Isobutyl acetate. 7-Isopentyl acetate.
As co-attractants are derived from microbial odours, beetle attraction towards yeast odours isolated from the insect's gut was tested (Farrukh Baig, PhD thesis, 2020). […] Synthetic blends of the yeast odours were developed and field tested.

“Also recorded” adds a separate entry of the source.

With `CC(=O)OCc1ccco1` [2-furanmethanol acetate], the GC-EAD antennal response entry in the series on C. davidsoni [1] is reported as “consistent physiological responses”.

Take `CCC(C)CO` (stereo not shown) [2-methyl-butanol]: the “Release rate (commercial solution)” value in series [2] is recorded as 0.6 mg/day. For the same compound, the GC-EAD antennal response result with C. davidsoni [1] is given as “consistent physiological responses”. Further, in series [3], the Est. long. is 200+ days and the Release rate is reported as 4.3 mg/day. Also, in series [4], the Est. long. was 200+ days and the Release rate was determined as 4.3 mg/day. The “attractiveness of commercial co-attractant in the absence of the compound / role of the compound” value with Carpophilus truncatus is on record as “significantly more attractive”.

With `CC(=O)OCCc1ccccc1` [2-phenylethylacetate], the “effect on beetle capture of adding the compound to the original co-attractant (CL)” value in the series on C. davidsoni [5] is on record as “significantly more beetles”. In addition, in the series on C. davidsoni [1], the GC-EAD antennal response entry is listed as “consistent physiological responses”. For the same compound, the GC-EAD antennal response result with C. davidsoni [1] (listed as 2-phenethyl acetate) is listed as “strong sensitivity”. For the same compound, in series [4], the Est. long. is listed as 70+ days and the Release rate was 28 mg/day. Moreover, the longevity in sachets entry in series [4] (dispensed in sachets) was “over 70 days”.

Turning to `CCC(=O)OCCc1ccccc1` [2-phenylethylpropionate], the GC-EAD antennal response entry in the series on C. davidsoni [1] is reported as “consistent physiological responses”.

On to `CCCCOC(C)=O` [Butyl acetate], for which, in the series with C. davidsoni [1], the GC-EAD antennal response entry was “consistent physiological responses”.

With `CCCCCCCC(=O)OCC` [Ethyl octanoate], the GC-EAD antennal response result with C. davidsoni [1] is “consistent physiological responses”.

For the compound `CC(=O)OCC(C)C` [Isobutyl acetate], the “antennal responses (GC-EAD)” value with C. truncatus was “strong antennal responses”. The GC-EAD antennal response result in the series with C. davidsoni [1] is on record as “consistent physiological responses”.

As for `CC(C)CO` [Isobutyl alcohol], in series [2], the “Release rate (commercial solution)” value is reported as 2.9 mg/day. Besides, the GC-EAD antennal response result in the series on C. davidsoni [1] is “consistent physiological responses”. Further, the Est. long. in series [3] and in series [4] was 200+ days in each case. Moreover, the Release rate in series [3] and in series [4] was 4.9 mg/day each time. For the same compound, the “attractiveness of commercial co-attractant in the absence of the compound / role of the compound” value with Carpophilus truncatus is reported as “seem to not influence”.

For `CC(=O)OCCC(C)C` [Isopentyl acetate], the “effect on beetle capture of adding the compound to the original co-attractant (CL)” value in the series on C. davidsoni [5] was “reduce lure attractiveness”. For the same compound, the “antennal responses (GC-EAD)” value with C. truncatus is recorded as “strong antennal responses”. Further, in the series on C. davidsoni [1], the GC-EAD antennal response result is “consistent physiological responses; also recorded: strong sensitivity”.

`CC(C)CCO` [Isopentyl alcohol]: the “Release rate (commercial solution)” value in series [2] was determined as 3.3 mg/day. Also, the GC-EAD antennal response result in the series with C. davidsoni [1] is recorded as “consistent physiological responses”. In series [3], the Est. long. came out at 300 days and the Release rate amounted to 3.4 mg/day. In addition, in series [4], the Est. long. turned out to be 300 days and the Release rate came to 3.4 mg/day. Further, the “effect of increased concentrations on lure efficacy” value in the series with Carpophilus truncatus (further cage bioassay experiments) is “increase in lure efficacy”. Moreover, in the series on Carpophilus truncatus, the “attractiveness of commercial co-attractant in the absence of the compound / role of the compound” value is “significantly less attractive”.

Turning to `CC(=O)OCc1ccccc1` [Phenylmethyl acetate], the GC-EAD antennal response result in the series on C. davidsoni [1] was “consistent physiological responses”.

Turning to `CCCOC(C)=O` [Propyl acetate], the GC-EAD antennal response entry in the series with C. davidsoni [1] is listed as “consistent physiological responses”.

With `CC=O` [acetaldehyde], in series [2], the “Release rate (commercial solution)” value is reported as 43 mg/day and the “duration of release in the current solution” value came out at 1 days. The “duration of release when applied in sachets” value in series [3] (LDPE sachets) was found to be 1 week. In series [3], this compound had an Est. long. of 7 days and a Release rate of 50 mg/day. In series [4], this compound displayed an Est. long. of 40 days and a Release rate of 50 mg/day. Moreover, the “attractiveness of commercial co-attractant in the absence of the compound / role of the compound” value in the series on Carpophilus truncatus is given as “tend to act as an attractant”.

Consider `CCO` [ethanol], for which the “ethanol emission rates in the commercial lure” value in series [2] (commercial lure) is recorded as 2.5 g/day. In addition, in series [3] (LDPE sachets), the “permeation through the LDPE layers” value is on record as “limited permeation”. The “maximum release rate achievable with thin sachets” value in series [3] (thin LDPE sachets, lab experiments) is reported as approximately 25 mg/day. In addition, the “attractiveness of commercial co-attractant in the absence of the compound / role of the compound” value in the series on Carpophilus truncatus is listed as “significantly less attractive”.

As for `CCOC(C)=O` [ethyl acetate], in series [2], the “Release rate (commercial solution)” value worked out at 110 mg/day and the “duration of release in the current solution” value was determined as 1 days. Besides, the GC-EAD antennal response entry with C. davidsoni [1] is “consistent physiological responses”. Also, in series [3] (LDPE sachets), the “duration of release when applied in sachets” value was found to be 1 week. In series [3], this compound showed an Est. long. of 15 days and a Release rate of 136 mg/day. In series [4], this compound came in with an Est. long. of 15 days and a Release rate of 136 mg/day. Moreover, the “attractiveness of commercial co-attractant in the absence of the compound / role of the compound” value with Carpophilus truncatus was “seem to not influence”.

Take `CCC1CCC(=O)O1` (stereo not shown) [γ-caprolactone]: the GC-EAD antennal response entry in the series with C. davidsoni [1] is “consistent physiological responses”.
